Measurements published in ChEMBL document CHEMBL1201862, “PubChem BioAssay data set” (2004).
The source made the active and inactive calls.

Assays:
[1] = target: T1, Probable nicotinate-nucleotide adenylyltransferase (Staphylococcus aureus (strain N315), UniProt P65502); assay type: functional, Staphylococcus aureus subsp. aureus N315;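 for IC50 Mean: confirmatory dose-response retesting of NadD inhibitor hits first found in an ultra-high-throughput screen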
[2] = target: T1, Probable nicotinate-nucleotide adenylyltransferase; assay type: functional, Staphylococcus aureus subsp. aureus N315; settings: read-out: IC50_Mean
Protein Wnt-3a = Protein Wnt-3a (Mus musculus, UniProt P27467); test: Wnt3a-driven reporter signaling inhibition, dose response, selectivity assay for Gli-SUFU antagonist project, Wnt-LIGHT cells, luminescence (AID 651570); assay type: functional; settings: read-out: IC50_Mean;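 note: Wnt-LIGHT reporter cells stimulated with conditioned medium from Wnt3a-producing cells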
Chain of Protein Wnt-3a (P27467 whole entry): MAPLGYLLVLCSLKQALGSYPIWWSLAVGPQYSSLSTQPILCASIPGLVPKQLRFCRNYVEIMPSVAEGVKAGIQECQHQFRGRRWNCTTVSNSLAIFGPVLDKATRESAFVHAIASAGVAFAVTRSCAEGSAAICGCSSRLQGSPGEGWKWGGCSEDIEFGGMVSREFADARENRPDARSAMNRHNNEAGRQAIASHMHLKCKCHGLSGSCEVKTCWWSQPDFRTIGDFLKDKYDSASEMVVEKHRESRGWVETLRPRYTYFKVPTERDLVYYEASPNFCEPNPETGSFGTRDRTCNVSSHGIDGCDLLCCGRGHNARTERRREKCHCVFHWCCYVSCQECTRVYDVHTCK

[3] = target: T2, Adenosylmethionine-8-amino-7-oxononanoate aminotransferase (Mycobacterium tuberculosis, UniProt P9WQ81); test: Mycobacterium tuberculosis BioA enzyme inhibitor Measured in Biochemical System Using Plate Reader - 2163-02_Inhibitor_Dose_CherryPick_Activity.; assay type: functional, Mycobacterium tuberculosis UT205
T2 sequence (P9WQ81 whole entry): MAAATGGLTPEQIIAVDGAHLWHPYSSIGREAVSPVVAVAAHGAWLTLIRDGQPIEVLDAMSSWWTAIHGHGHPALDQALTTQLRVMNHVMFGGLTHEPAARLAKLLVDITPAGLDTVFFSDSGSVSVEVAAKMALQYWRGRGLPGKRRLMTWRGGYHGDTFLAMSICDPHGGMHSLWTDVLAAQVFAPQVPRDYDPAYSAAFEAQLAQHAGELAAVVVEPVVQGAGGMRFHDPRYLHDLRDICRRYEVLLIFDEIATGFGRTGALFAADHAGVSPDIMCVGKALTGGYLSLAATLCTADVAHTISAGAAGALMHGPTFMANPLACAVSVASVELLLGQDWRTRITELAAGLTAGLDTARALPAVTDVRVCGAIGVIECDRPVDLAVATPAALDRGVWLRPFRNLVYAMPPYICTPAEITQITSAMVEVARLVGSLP

Vero [4] = test: Vero cell cytotoxicity, cytotoxicity control for flavivirus capping enzyme inhibitors (AID 588742); assay type: functional; settings: Chlorocebus sabaeus
Genome polyprotein = Genome polyprotein (dengue virus type 2, UniProt P29990); test: Dengue-2 NS5 methyltransferase inhibitors, primary screen, biochemical, confirmation dose response (AID 588689); assay type: functional
Chain of Genome polyprotein (P29990 2492-3391 limits assumed): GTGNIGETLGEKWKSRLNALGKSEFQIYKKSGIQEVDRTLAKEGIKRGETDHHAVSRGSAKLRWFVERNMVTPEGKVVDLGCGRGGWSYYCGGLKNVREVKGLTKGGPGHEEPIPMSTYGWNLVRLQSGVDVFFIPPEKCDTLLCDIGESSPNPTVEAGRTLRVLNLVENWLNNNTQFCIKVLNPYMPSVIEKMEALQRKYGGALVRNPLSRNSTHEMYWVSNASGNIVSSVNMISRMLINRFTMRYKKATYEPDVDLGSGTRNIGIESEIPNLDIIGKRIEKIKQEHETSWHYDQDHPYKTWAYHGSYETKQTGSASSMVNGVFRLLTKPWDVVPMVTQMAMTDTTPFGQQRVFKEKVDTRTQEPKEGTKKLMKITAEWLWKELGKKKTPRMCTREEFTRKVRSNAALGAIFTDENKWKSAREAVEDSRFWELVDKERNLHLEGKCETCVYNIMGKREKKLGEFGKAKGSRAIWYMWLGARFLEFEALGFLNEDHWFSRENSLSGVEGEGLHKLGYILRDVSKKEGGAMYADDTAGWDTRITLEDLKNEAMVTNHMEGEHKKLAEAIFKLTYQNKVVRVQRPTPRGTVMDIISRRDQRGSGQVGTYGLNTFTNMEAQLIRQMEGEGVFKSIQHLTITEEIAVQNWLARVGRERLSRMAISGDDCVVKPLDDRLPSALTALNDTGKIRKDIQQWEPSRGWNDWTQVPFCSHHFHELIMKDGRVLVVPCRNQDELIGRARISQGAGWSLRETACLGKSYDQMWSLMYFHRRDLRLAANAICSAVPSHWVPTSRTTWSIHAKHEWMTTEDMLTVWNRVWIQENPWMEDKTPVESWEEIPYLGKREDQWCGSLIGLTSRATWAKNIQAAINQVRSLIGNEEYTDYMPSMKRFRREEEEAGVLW

[5] = HEp-2 cell cytotoxicity, dose response, cytotoxicity control for RSV inhibitor project, HTS (AID 2410); assay type: functional; settings: human respiratory syncytial virus
[6] = microbe, parasite or virus in culture; assay type: functional; settings: Mycobacterium tuberculosis
[7] = inhibitors of firefly luciferase expression or activity, dose response, H4 neuroglioma cells, luminescence (AID 1990); assay type: functional, cell-based
[8] = Luminescence Cell-Based Dose Response HTS to Identify Inhibitors of 5'UTR Stem-Loop Driven Prion Protein mRNA Translation in H4 Neuroglioblastoma Cells. [Related pubchem assays: 1827 (Project Summary), 1813 (Primary HTS)]; assay type: functional
[9] = inhibitors of SNCA 5'UTR-driven reporter translation, confirmation, H4 neuroglioma cells, luminescence (AID 1988); assay type: functional, cell-based
Melanocortin receptor 4 = Melanocortin receptor 4 (Homo sapiens, UniProt P32245); assay type: functional, cell-based;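 note: Cell-based assay with luminescence read-out, confirmatory dose-response testing for agonist activity of biased ligands at MC4R; human U2OS cells with tagged receptor and beta-arrestin; potency of agonists that increase receptor coupling to beta-arrestin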
Chain of Melanocortin receptor 4 (P32245 whole entry): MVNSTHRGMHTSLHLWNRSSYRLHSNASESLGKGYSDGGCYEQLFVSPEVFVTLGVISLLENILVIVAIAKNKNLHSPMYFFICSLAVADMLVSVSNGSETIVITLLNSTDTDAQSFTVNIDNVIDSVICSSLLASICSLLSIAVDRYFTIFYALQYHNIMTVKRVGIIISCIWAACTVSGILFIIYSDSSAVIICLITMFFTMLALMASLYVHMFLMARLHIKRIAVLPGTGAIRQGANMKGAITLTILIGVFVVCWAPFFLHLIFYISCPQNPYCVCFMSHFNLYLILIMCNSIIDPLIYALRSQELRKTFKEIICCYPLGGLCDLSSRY

[10] = insulin promoter down-regulators in MIN6 cells, imaging, high-content screening, mouse beta cells (AID 1628); assay type: functional
[11] = cytotoxicity in MIN6 insulinoma cells, dose response, cytotoxicity control, cell-based, mouse insulinoma (AID 2122); assay type: functional;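 note: confirmatory high-throughput counterscreen run to flag cytotoxic compounds; mouse MIN-6 beta cells carrying an insulin promoter eGFP reporter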
INS1 = test: beta cell apoptosis inhibitors, cytokine rescue, dose response, luminescence, retest (AID 449756); assay type: functional, cell-based; settings: Rattus norvegicus;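 note: cell death triggered by IL-1 beta plus TNF-alpha plus IFN-gamma mixture; protective hits raise ATP signal compared with cytokine alone wells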
[12] = target: T3, Histone-lysine N-methyltransferase NSD2 (Homo sapiens, UniProt O96028); assay type: biochemical
T3 sequence (O96028 whole entry): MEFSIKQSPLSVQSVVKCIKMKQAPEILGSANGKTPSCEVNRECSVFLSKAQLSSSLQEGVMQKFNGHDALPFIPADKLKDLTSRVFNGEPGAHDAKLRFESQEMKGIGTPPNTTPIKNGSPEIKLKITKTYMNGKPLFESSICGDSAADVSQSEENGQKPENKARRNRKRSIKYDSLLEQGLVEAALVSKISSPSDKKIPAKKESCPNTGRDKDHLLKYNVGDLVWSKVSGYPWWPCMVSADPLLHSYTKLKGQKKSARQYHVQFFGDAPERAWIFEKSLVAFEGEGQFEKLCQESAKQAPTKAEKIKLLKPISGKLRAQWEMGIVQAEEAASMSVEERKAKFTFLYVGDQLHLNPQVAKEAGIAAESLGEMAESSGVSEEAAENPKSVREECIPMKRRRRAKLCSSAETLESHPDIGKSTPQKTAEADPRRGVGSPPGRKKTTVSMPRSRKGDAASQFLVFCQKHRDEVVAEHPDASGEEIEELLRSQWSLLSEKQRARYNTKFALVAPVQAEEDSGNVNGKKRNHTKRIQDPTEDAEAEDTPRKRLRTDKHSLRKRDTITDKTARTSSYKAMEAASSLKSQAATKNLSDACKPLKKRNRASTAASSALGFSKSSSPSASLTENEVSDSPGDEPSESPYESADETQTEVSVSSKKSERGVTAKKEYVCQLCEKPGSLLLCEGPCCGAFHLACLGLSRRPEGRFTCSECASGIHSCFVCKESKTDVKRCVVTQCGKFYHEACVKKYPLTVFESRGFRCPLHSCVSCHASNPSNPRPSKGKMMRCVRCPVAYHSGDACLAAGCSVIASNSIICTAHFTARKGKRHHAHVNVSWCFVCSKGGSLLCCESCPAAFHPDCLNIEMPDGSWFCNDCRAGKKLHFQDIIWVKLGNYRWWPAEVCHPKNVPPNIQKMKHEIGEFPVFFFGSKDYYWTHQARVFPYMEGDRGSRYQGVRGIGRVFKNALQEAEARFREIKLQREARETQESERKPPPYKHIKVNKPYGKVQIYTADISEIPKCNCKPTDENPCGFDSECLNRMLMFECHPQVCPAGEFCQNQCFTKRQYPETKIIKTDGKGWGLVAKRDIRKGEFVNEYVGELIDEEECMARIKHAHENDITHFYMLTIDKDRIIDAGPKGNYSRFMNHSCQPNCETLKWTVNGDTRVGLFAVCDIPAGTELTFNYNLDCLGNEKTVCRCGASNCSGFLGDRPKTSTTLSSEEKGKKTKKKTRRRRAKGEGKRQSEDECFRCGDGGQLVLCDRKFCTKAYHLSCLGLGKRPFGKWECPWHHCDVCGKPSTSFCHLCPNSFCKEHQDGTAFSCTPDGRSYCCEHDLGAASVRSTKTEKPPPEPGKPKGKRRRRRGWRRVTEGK

[13] = target: T4, Small ubiquitin-related modifier 1 (Homo sapiens, UniProt P63165); test: inhibitors of SUMO1 peptide binding, dose response, biochemical, fluorescence polarization, uHTS hits (AID 624382); assay type: functional; settings: read-out: IC50_Mean
T4 sequence (P63165 whole entry): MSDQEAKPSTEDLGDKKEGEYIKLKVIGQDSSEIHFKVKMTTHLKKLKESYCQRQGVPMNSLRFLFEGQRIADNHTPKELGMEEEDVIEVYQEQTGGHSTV

[14] = target: T4, Small ubiquitin-related modifier 1; test: inhibitors of SUMO1 partner interactions, dose response, biochemical, FRET (AID 624383); assay type: functional; settings: read-out: IC50_Mean
[15] = target: T5, Endoribonuclease toxin MazF (Escherichia coli K-12, UniProt P0AE70); test: MazF toxin RNase activators, dose response, biochemical, fluorescence, single-stranded RNA substrate, uHTS hits (AID 588481); assay type: functional
T5 sequence (P0AE70 whole entry): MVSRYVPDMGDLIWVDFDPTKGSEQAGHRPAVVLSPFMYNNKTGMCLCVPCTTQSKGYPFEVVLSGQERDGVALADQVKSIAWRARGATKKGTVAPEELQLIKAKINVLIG

[16] = target: T5, Endoribonuclease toxin MazF; test: fluorescent RNA oligo signal without MazF, dose response, counter-screen for MazEF activator project, biochemical, fluorescence, single-stranded RNase substrate (AID 588502); assay type: functional
[17] = target: T6, Low molecular weight phosphotyrosine protein phosphatase (Homo sapiens, UniProt P24666); assay type: functional; settings: read-out: IC50_Mean;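 note: Dose-response confirmation assay measuring inhibition of LMPTP enzyme activity by fluorescence intensity read-out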
T6 sequence (P24666 whole entry): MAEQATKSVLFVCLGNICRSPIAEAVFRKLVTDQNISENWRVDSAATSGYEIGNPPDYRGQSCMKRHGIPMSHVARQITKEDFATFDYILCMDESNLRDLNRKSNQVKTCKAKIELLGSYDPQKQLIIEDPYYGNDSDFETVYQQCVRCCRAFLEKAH

[18] = target: Glucose-6-phosphate 1-dehydrogenase (Homo sapiens, UniProt P11413); test: human G6PD enzyme inhibitors, dose response, selectivity assay for P. falciparum G6PD inhibitor project, biochemical, fluorescence (AID 504792); assay type: functional
Chain of Glucose-6-phosphate 1-dehydrogenase (P11413 whole entry): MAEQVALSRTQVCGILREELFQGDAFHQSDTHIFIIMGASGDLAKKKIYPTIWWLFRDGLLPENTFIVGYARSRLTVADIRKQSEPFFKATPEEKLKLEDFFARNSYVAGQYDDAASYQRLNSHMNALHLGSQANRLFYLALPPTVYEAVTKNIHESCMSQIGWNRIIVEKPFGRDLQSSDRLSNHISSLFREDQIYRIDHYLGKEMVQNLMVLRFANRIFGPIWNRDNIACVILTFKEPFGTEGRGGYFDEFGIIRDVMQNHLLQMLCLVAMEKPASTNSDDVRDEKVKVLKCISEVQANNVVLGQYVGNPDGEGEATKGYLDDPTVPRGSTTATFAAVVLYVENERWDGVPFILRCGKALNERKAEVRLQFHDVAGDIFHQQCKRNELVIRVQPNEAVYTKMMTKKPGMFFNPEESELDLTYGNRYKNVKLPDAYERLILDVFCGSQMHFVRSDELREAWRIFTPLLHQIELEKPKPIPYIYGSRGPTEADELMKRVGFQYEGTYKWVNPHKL

Vero [19] = test: cells; assay type: functional; settings: Chlorocebus sabaeus
[20] = HeLa cell cytotoxicity, dose response, cytotoxicity control for MgcRacGAP inhibitor project (AID 624300); assay type: functional
[21] = target: T7, Rac GTPase-activating protein 1 (Homo sapiens, UniProt Q9H0H5); test: MgcRacGAP GTPase-activating activity inhibitors, confirmation, biochemical, ADP Hunter fluorescence, primary and confirmatory (AID 624330); assay type: functional
T7 sequence (Q9H0H5 whole entry): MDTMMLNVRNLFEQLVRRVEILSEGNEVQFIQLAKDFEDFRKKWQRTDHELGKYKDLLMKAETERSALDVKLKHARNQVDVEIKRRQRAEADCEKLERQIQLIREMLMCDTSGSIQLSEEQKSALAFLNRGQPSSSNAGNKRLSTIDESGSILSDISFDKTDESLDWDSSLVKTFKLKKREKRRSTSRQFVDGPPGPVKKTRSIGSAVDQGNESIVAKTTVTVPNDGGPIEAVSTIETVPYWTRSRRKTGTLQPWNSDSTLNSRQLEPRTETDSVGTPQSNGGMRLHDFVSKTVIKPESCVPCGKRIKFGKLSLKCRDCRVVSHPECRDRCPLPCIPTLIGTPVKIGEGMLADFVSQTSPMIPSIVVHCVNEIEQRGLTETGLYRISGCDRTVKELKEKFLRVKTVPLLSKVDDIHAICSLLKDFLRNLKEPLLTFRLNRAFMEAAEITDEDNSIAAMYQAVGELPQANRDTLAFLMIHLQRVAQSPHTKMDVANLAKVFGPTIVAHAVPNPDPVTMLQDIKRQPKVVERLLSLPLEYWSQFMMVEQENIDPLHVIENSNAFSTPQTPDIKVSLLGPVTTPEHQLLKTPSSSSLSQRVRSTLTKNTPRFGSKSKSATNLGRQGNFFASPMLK

[22] = Luminescence Cell-Based Dose Retest to Confirm Inhibitors of Cancer Stem Cells. [Related pubchem assays (depositor defined):AID2717, AID2721]; assay type: functional; settings: Homo sapiens
[23] = target: Photoreceptor-specific nuclear receptor (Homo sapiens, UniProt Q9Y5X4); assay type: functional, cell-based;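 note: CHO-S cells with Gal4-NCOR and VP16-NR2E3 two-hybrid luciferase reporter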
Chain of Photoreceptor-specific nuclear receptor (Q9Y5X4 whole entry, the tested form may be a part): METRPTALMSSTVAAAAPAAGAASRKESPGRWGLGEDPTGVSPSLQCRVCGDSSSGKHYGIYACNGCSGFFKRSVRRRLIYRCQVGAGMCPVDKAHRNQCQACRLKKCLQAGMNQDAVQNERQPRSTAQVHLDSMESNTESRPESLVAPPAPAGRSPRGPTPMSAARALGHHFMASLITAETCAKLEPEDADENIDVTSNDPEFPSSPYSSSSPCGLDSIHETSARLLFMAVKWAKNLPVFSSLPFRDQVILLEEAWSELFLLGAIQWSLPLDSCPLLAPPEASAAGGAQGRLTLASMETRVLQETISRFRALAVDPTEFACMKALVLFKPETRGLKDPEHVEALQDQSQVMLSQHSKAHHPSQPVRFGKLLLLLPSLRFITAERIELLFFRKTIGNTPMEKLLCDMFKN

T1 sequence (P65502 whole entry): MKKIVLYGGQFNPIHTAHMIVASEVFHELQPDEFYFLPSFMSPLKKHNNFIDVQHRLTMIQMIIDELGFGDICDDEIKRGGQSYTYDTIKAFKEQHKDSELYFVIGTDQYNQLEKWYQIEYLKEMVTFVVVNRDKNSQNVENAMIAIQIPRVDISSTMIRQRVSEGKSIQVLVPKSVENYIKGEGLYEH

C#Cc1ccc([C@H]2C=C(C(=O)NCc3nc4ccccc4[nH]3)O[C@@H](OCc3ccc(CO)cc3)C2)cc1
IC50 [1]: 10.5 µM (active)
IC50 [2]: 20.7 µM (active)

COc1ccccc1CN(Cc1nc(O)c2ccccc2n1)S(=O)(=O)c1ccc(C)cc1
IC50 (Protein Wnt-3a): 32.7 µM (inactive)

CC(=O)N1CCN(c2ccc([N+](=O)[O-])cc2C=C2C(=O)NC(=O)NC2=O)CC1
AC50 [3]: 8.51 µM (active)

C=CCn1c(=S)[nH]c2scc(-c3ccc(C)o3)c2c1=O
CC50 (Vero [4]): 37.2 µM (active)

CCCCC[C@@H]1C=C(C(=O)O)[C@H](c2ccc(Cl)cc2)N1S(=O)(=O)c1ccc(C)cc1
CC50 (Vero [4]): > 40 µM (active)
IC50 (Genome polyprotein): 42.3 µM (active)

Cc1ccc2[nH]c(=O)c(CN(CCc3ccccc3)C(c3nnnn3Cc3ccco3)C(C)C)cc2c1 (stereo not given)
IC50 [1]: 12.1 µM (active)
IC50 [2]: 20 µM (active)

Cc1n[nH]c(O)c1C(c1ccc(-c2ccc(Cl)c(Cl)c2)o1)c1c(C)n[nH]c1O
CC50 [5]: 15.2 µM (active)
CC50 [6]: 28.1 µM (active)
CC50 (Vero [4]): 20.8 µM (active)

Cc1nc(=O)c(-c2ccccc2)c(C)n1-c1ccc(Br)cc1
AC50 [3]: 15.6 µM (active)

O=C(N[C@H]1C/C=C\C[C@@H](CC(=O)N(CCO)Cc2ccccc2)C(=O)N[C@H](Cc2c[nH]c3ccccc23)COC1=O)OCC1c2ccccc2-c2ccccc21
IC50 (Protein Wnt-3a): 17.8 µM (active)

COc1ccc(-c2csc(C3=C(N)N(Cc4ccc(Cl)cc4)CC3=O)n2)cc1OC
EC50 [7]: > 120 µM (not active)
EC50 [8]: 32.9 µM (active)
EC50 [9]: 85.3 µM (active)
EC50 (Melanocortin receptor 4): > 89.2 µM (inactive)

CN1/C(=C\C(=O)COC(=O)c2ccc(O)c(O)c2)C(C)(C)c2ccccc21
IC50 [10]: 0.784 µM (active)
IC50 [11]: 0.454 µM (active)
AC50 (INS1): 6.68 µM (active)
AC50 [12]: > 20 µM (inactive)

Cc1[nH]c2ccc(C(=O)OCC(=O)Nc3cccc(S(N)(=O)=O)c3)cc2c1C
IC50 [13]: > 66.6 µM (inactive)
IC50 [14]: 0.624 µM (active)

COC(=O)C1=C(COc2ccccc2)NC(=O)NC1c1ccc(Br)cc1 (stereo not given)
IC50 [13]: > 66.6 µM (inactive)
IC50 [14]: 15.2 µM (active)

CCOC(=O)CSc1nc2cc(OC)ccc2cc1C#N
EC50 [15]: > 99 µM (inactive)
EC50 [16]: > 99 µM (inactive)

COc1ccc(-c2cc(C(=O)Nc3cc(Cl)ccc3O)no2)cc1
IC50 [17]: 2.91 µM (active)

COc1cc(NC(=O)Nc2nc(C(N)Cc3ccc(C(F)(F)F)cc3)cs2)cc(OC)c1OC (stereo not given)
EC50 (Melanocortin receptor 4): > 89.2 µM (inactive)

CN(C)c1nc(=NCc2cccs2)ss1
IC50 [18]: > 80 µM (inactive)
CC50 (Vero [19]): 19 µM (active)
CC50 [20]: 100 µM (active)
IC50 [21]: 134 µM (active)

COc1ccc(NC(=O)Nc2nnc(-c3ccccc3SCc3ccccc3)s2)cc1
EC50 (Melanocortin receptor 4): > 89.2 µM (inactive)

CC(C)(C)c1cc(Cl)ccc1OCCOCCN1CCCC1
AC50 [22]: 6.93 µM (active)
CC50 [20]: 67.4 µM (active)
IC50 [21]: 104 µM (active)

COc1ccc(NC2c3ccccc3C(=O)N2Cc2ccccc2Cl)cc1OC (stereo not given)
IC50 [23]: 1.5 µM (active)

O=S(=O)(c1ccc2c(c1)nc(COc1ccc(Cl)cc1)n2CC1CCCO1)N1CCOCC1 (stereo not given)
EC50 [7]: 19.6 µM (active)
EC50 [8]: > 120 µM (not active)
EC50 [9]: 15.8 µM (active)
IC50 (Protein Wnt-3a): 4.1 µM (active)

O=C(OC(c1ccccc1)c1nccc2ccccc12)c1ccccc1 (stereo not given)
IC50 [23]: 36.1 µM (inactive)

CC(=O)O[C@]1(C(C)=O)CC[C@H]2[C@@H]3C=C(C)C4=CC(=O)CC[C@]4(C)[C@H]3CC[C@@]21C [MEGESTROL ACETATE]
AC50 [3]: 11 µM (active)
